Test results reported in patent EP0010209A1, “N-Benzoyl-retinyl amines, process for their preparation, pharmaceutical compositions comprising them and the use of these compounds for the therapy and prophylaxis of precanceroses and carcinomas of the skin” (BASF Aktiengesellschaft, priority 1978, dated 1980).

Legend:
Brustkrebs bei Ratten = assay: Prevention of nitrosomethylurea-induced mammary cancer in rats; type: in vivo, Sprague-Dawley Ratten; conditions: nitrosomethylurea 50 mg/kg i.v., 2 mmol/kg diet from day 3, 12 weeks
tracheal cartilage = conditions: toxicity to tracheal cartilage in vitro; from Nature 263, 110-113 (1976); read-out: celluläre Toxizitätsschwelle (Konzentration); cited from earlier work
[1] = system: durch Vitamin A-Hypovitaminose keratinisierten Hamstertrachealgewebe; conditions: hamster tracheal tissue keratinised by vitamin A deficiency; active only at this concentration; cited from earlier work

Compound | Zahl der Tumoren (Brustkrebs bei Ratten; all tumours) | Zahl der Tumoren davon größer als 1,0 g (Brustkrebs bei Ratten; tumours > 1,0 g) | Zahl der Tumoren größer als 0,100 g (Brustkrebs bei Ratten; tumours > 0,100 g) | MCC (tracheal cartilage) [µM] | Konzentration, in der Aktivität vorliegt [1]
CC1=C(/C=C/C(C)=C/C=C/C(C)=C/CNC(=O)c2ccccc2)C(C)(C)CCC1 [Benzoyl-retinylamin, N-Benzoyl-all-E-Retinylamin] | 10 | 2 | 4 | – | –
CC(=O)NCC=C(C)C=CC=C(C)C=CC1=C(C)CCCC1(C)C [N-Acetyl-retinylamin] | – | – | – | > 10 | 9.10^-9 molar
